Assay results published in patent publication US12172995B2, “Substituted indole and indazole compounds” (BRISTOL-MYERS SQUIBB COMPANY, priority 2018, dated 2024).

Tests used:
Type in all cases: cell-based
[1] = target: T1, human TLR9 (Homo sapiens, UniProt Q9NR96); assay: TLR9 inhibition reporter assay (HEK-Blue SEAP); settings: HEK-Blue cells overexpressing human TLR9, stimulated with ODN2006 5 nM, 22 hour incubation
T1 construct: host or cells: HEK-Blue cells
T1 sequence (Q9NR96 26-1032): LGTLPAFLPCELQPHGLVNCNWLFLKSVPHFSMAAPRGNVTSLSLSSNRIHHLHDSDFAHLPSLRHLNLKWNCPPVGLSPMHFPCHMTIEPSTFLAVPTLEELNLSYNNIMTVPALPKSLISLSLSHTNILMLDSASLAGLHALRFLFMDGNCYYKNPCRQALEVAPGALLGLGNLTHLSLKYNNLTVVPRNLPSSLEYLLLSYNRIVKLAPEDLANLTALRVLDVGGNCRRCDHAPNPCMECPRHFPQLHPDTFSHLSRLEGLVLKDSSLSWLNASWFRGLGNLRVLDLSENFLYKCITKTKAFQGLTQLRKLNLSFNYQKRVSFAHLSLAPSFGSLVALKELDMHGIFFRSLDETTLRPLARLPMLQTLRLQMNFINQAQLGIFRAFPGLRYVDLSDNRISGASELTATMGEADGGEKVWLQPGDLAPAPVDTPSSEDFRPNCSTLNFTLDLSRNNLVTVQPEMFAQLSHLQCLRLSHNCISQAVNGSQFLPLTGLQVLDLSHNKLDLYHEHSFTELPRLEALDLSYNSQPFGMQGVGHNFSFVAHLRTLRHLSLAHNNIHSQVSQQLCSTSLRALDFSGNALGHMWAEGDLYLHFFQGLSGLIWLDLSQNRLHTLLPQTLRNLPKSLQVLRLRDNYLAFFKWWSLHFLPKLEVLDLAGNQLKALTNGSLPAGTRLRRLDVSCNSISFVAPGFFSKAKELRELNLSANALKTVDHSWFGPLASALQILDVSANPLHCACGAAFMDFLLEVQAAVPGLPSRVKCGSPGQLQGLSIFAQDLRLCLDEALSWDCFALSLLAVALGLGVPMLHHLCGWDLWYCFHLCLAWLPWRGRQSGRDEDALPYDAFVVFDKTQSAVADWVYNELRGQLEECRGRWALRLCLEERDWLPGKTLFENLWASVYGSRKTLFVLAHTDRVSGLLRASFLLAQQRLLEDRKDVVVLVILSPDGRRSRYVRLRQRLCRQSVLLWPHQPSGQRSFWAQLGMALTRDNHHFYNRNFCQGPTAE
In short: (§1)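 Cells are seeded, given test compound across 0.05 nM to 50 μM, and after 30 min at room temperature stimulated with the receptor's agonist (gardiquimod 7.5 μM, R848 15.9 μM or ODN2006 5 nM for TLR7, 8, 9). SEAP is measured after 22 h at 37 °C.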

[2] = target: T2, human TLR8 (Homo sapiens, UniProt Q9NR97); assay: TLR8 inhibition reporter assay (HEK-Blue SEAP); settings: HEK-Blue cells overexpressing human TLR8, stimulated with R848 15.9 μM, 22 hour incubation
T2 construct: host or cells: HEK-Blue cells
T2 sequence (Q9NR97 27-1041): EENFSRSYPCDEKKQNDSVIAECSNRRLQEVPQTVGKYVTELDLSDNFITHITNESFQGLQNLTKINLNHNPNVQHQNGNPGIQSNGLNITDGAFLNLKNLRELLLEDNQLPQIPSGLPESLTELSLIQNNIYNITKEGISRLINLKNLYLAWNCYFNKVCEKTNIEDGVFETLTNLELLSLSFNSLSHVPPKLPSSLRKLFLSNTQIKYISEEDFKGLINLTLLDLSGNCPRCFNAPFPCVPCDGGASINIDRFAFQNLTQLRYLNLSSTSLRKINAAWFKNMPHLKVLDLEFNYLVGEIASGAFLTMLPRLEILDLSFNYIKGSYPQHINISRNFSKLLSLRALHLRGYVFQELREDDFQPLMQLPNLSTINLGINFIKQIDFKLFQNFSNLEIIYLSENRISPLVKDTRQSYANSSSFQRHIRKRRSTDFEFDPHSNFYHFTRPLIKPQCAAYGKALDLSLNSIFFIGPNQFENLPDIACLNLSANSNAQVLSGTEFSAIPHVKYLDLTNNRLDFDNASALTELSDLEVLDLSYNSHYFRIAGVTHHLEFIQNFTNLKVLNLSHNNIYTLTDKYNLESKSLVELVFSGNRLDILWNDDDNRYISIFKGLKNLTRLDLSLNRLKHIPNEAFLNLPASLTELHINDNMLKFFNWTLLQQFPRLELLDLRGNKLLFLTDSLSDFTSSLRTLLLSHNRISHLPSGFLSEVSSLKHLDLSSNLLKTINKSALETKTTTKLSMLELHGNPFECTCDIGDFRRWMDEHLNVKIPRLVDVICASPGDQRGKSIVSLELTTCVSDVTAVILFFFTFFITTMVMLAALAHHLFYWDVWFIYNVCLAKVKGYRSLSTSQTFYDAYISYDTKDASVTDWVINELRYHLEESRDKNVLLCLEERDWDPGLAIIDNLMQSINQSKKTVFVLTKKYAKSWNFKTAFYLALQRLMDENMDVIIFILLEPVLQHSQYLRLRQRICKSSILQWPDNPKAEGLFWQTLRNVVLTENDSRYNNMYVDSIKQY
In short: as §1

[3] = target: T3, human TLR7 (Homo sapiens, UniProt Q9NYK1); assay: TLR7 inhibition reporter assay (HEK-Blue SEAP); settings: HEK-Blue cells overexpressing human TLR7, stimulated with gardiquimod 7.5 μM, 22 hour incubation
T3 construct: host or cells: HEK-Blue cells
T3 sequence (Q9NYK1 27-1049): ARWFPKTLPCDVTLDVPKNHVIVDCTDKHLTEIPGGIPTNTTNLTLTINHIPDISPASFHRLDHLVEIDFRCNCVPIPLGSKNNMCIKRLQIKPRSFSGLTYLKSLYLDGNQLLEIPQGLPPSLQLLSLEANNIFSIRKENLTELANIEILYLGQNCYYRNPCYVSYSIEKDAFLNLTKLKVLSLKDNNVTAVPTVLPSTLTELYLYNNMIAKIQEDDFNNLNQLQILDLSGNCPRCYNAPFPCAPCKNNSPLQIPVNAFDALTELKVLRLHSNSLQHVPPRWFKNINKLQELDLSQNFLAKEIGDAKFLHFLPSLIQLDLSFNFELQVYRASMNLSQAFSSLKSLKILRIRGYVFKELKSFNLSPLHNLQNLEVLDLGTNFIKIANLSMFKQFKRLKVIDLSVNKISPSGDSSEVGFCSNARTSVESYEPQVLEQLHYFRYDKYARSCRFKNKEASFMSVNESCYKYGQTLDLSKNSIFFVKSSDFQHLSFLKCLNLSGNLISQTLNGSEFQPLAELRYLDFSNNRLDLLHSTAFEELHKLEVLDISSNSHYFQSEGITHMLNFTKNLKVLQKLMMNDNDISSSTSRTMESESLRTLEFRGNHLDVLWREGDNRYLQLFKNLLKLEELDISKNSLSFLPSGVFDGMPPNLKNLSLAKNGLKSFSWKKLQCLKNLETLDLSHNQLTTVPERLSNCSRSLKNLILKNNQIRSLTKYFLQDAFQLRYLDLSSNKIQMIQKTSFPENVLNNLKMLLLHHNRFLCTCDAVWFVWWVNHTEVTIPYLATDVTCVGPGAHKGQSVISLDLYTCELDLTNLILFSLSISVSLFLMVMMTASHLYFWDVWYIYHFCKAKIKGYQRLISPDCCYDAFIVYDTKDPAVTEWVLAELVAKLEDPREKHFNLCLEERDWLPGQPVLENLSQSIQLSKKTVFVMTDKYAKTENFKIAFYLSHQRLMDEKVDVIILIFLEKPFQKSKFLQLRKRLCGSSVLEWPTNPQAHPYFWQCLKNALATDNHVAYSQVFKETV
In short: as §1

| IC50 [1] [nM] | IC50 [2] [nM] | IC50 [3] [nM] | Compound |
| --- | --- | --- | --- |
| 287 | 19.6 | 4.7 | Cc1cc(-c2cc(C)c3ncnn3c2)cc2[nH]nc(C3CCCNC3)c12 (stereo not drawn) [Example 51, 8-methyl-6-(4-methyl-3-(piperidin-3-yl)-1H-indazol-6-yl)-[1,2,4]triazolo[1,5-a]pyridine] |
| 27400 | 5.8 | 25.9 | Cc1cc2c(OC3CCC(N(C)C)CC3)n[nH]c2cc1-c1cc(C)c2ncnn2c1 (single isomer, unassigned) [Example 182, N,N-dimethyl-4-((5-methyl-6-(8-methyl-[1,2,4]triazolo[1,5-a]pyridin-6-yl)-1H-indazol-3-yl)oxy)cyclohexan-1-amine] |
| 33300 | 0.15 | 6.5 | Cc1cc(-c2cc3[nH]nc(N4CCN(C5CCOCC5)CC4)c3cc2C(C)C)cn2ncnc12 [Example 207, 6-(5-isopropyl-3-(4-(tetrahydro-2H-pyran-4-yl)piperazin-1-yl)-1H-indazol-6-yl)-8-methyl-[1,2,4]triazolo[1,5-a]pyridine] |
| 631 | 0.2 | 5.4 | Cc1cc2c(OC3CCNCC3)n[nH]c2cc1-c1cc(C)c2ncnn2c1 [Example 167, 8-methyl-6-(5-methyl-3-(piperidin-4-yloxy)-1H-indazol-6-yl)-[1,2,4]triazolo[1,5-a]pyridine] |
| 5730 | 3 | 13.3 | Cc1cc2c(OC3CCN(C(=O)CN(C)C)CC3)n[nH]c2cc1-c1cc(C)c2ncnn2c1 [Example 170, 2-(dimethylamino)-1-(4-((5-methyl-6-(8-methyl-[1,2,4]triazolo[1,5-a]pyridin-6-yl)-1H-indazol-3-yl)oxy)piperidin-1-yl)ethan-1-one] |
| 1190 | 1.8 | 1.8 | COc1cc(-c2cc(C)c3c(OC4CCC(N(C)C)CC4)n[nH]c3c2)cn2ncnc12 (single isomer, unassigned) [Example 184, 4-((6-(8-methoxy-[1,2,4]triazolo[1,5-a]pyridin-6-yl)-4-methyl-1H-indazol-3-yl)oxy)-N,N-dimethylcyclohexan-1-amine] |
| 28200 | 2360 | 319 | COc1cc(-c2ccc3c(C(=O)NC4CCNCC4)c[nH]c3c2)cn2ncnc12 [Example 197, 6-(8-methoxy-[1,2,4]triazolo[1,5-a]pyridin-6-yl)-N-(piperidin-4-yl)-1H-indole-3-carboxamide] |
| 12200 | 0.2 | 5.6 | CCc1cc2c(C3CCN(CC(C)(C)O)CC3)n[nH]c2cc1-c1cc(C)c2ncnn2c1 [Example 101, 1-(4-(5-ethyl-6-(8-methyl-[1,2,4]triazolo[1,5-a]pyridin-6-yl)-1H-indazol-3-yl)piperidin-1-yl)-2-methylpropan-2-ol] |
| 13000 | 4.6 | 23.4 | Cc1cc2c(C3CCCN(C(=O)CN(C)C)C3)n[nH]c2cc1-c1cc(C)c2ncnn2c1 (stereo not drawn) [Example 40, 2-(dimethylamino)-1-(3-(5-methyl-6-(8-methyl-[1,2,4]triazolo[1,5-a]pyridin-6-yl)-1H-indazol-3-yl)piperidin-1-yl)ethan-1-one] |
| 1010 | 3.8 | 68.9 | Cc1cc2c(CC3CCNCC3)n[nH]c2cc1-c1cc(C)c2ncnn2c1 [Example 10, 8-methyl-6-(5-methyl-3-(piperidin-4-ylmethyl)-1H-indazol-6-yl)-[1,2,4]triazolo[1,5-a]pyridine] |
| 6070 | 4.5 | 4 | CCc1cc(-c2cc(C)c3ncnn3c2)cc2[nH]nc(C3CCN(CC(=O)N(C)C)CC3)c12 [Example 8, 2-(4-(4-ethyl-6-(8-methyl-[1,2,4]triazolo[1,5-a]pyridin-6-yl)-1H-indazol-3-yl)piperidin-1-yl)-N,N-dimethylacetamide] |
| 4410 | 0.4 | 12.4 | Cc1cc2c(C3CCC(NCC(=O)N(C)C)CC3)n[nH]c2cc1-c1cc(C)c2ncnn2c1 (single isomer, unassigned) [Example 28, N,N-dimethyl-2-((4-(5-methyl-6-(8-methyl-[1,2,4]triazolo[1,5-a]pyridin-6-yl)-1H-indazol-3-yl)cyclohexyl)amino)acetamide] |
| 1890 | 15.3 | 174 | Cc1cc2c(C3CNC3)n[nH]c2cc1-c1cc(C)c2ncnn2c1 [Example 49, 6-(3-(azetidin-3-yl)-5-methyl-1H-indazol-6-yl)-8-methyl-[1,2,4]triazolo[1,5-a]pyridine] |

| Compound | IC50 [1] [nM] | IC50 [2] [nM] | IC50 [3] [nM] |
| --- | --- | --- | --- |
| CCc1cc2c(C3CCN(Cc4cn(C)nn4)CC3)n[nH]c2cc1-c1cc(C)c2ncnn2c1 [Example 105, 6-(5-ethyl-3-(1-((1-methyl-1H-1,2,3-triazol-4-yl)methyl)piperidin-4-yl)-1H-indazol-6-yl)-8-methyl-[1,2,4] triazolo[1,5-a]pyridine] | 8780 | 0.1 | 5.1 |
